Literature values as cited in patent US10463045B2, “Agrochemical composition” (Nippon Soda Co., Ltd., priority 2015, dated 2019).
≈ marks a conversion by molar mass, not a printed value. Like-named read-outs stand apart in the source and are kept apart here.

5-butyl-2-dimethylamino-6-methylpyridin-4-ol [dimethirimol]
solubility in water (25° C.): 1,200 mg/l

ClC=CCCl [D-D, 1,3-dichloropropene]
solubility in water (E form, 20° C.): 2,520 mg/l | solubility in water (Z form, 20° C.): 2,450 mg/l

CC(C)N1C(=O)c2ccccc2NS1(=O)=O [bentazon, 3-isopropyl-1H-2,1,3-benzothiadiazin-4(3H)-one-2,2-dioxide]
solubility in water (20° C.): 570 mg/L (≈ 2370 µM)

CN(CC[C@H](N)CC(=O)N[C@H]1C=C[C@H](n2ccc(N)nc2=O)O[C@@H]1C(=O)O)C(=N)N [blasticidin S, 1-(4-amino-1,2-dihydro-2-oxopyrimidin-1-yl)-4-[(S)-3-amino-5-(1-methyl-guanidino)valeramido]-1,2,3,4,-tetradioxy-β-D-erythrohexy-2-enopyranuronic acid]
solubility in water (20° C.): 30,000 mg/l

CC(C1CC1)C(O)(Cn1cncn1)c1ccc(Cl)cc1 (stereo not drawn) [cyproconazole, 2-(4-chlorophenyl)-3-cyclopropyl-1-(1H-1,2,4-triazol-1-yl) butan-2-ol]
solubility in water (pH 6.9): 100 mg/L (≈ 343 µM)

CN1CSC(=S)N(C)C1 [dazomet, 3,5-dimethyl-tetrahydro-2H-1,3,5-thiadiazine-2-thione]
solubility in water (20° C.): 3,500 mg/l

N#CCNC(=O)c1cnccc1C(F)(F)F [flonicamid]
solubility in water (20° C.): 5,200 mg/l

CNC(=O)ON=C(C)SC [methomyl, S-methyl-N-(methylcarbamoyloxy) thioacetimidate]
solubility in water (20° C., pH 7): 46,000 mg/l
